Test results as given in the supplement of paper PMC7840683.
Where a name gives a salt, the structure may show the parent alone.

System: HepaRG
Assay: LDH release cytotoxicity, % of total lysis control; higher = more cytotoxic
Details: 48 h
How it was run: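 Eight-point half-log series of test chemicals, the highest at 100 µM, were given in duplicate for 48 h to single-lot HepaRG cells on collagen I-coated 96-well plates in serum-free induction medium with 0.5% DMSO. A Tecan Safire read resorufin fluorescence from CytoTox-ONE as a measure of LDH in 50 µL spent medium, with 0.1% Triton X in total lysis wells. Percent cytotoxicity was normalized to on-plate vehicle and total lysis controls and averaged over the duplicates.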

C#CCC1=C(C)C(OC(=O)C2C(C=C(C)C)C2(C)C)CC1=O (configuration not stated) [Prallethrin]
Details	LDH release cytotoxicity [%]
0.0314647 µM	-1.54
0.0995 µM	-0.874
0.3146466 µM	-2.55
0.995 µM	-2.33
3.14647 µM	-1.9
9.95 µM	-1.44
31.4647 µM	-2.39
99.5 µM	3.9

COCCOCCO [Diethylene glycol monomethyl ether]
Details	LDH release cytotoxicity [%]
0.03162 µM	-0.428
0.1 µM	-2.12
0.3162278 µM	-0.798
1 µM	-1.35
3.16228 µM	-0.999
10 µM	-1.13
31.6228 µM	0.0217
100 µM	1.02

Clc1ccccc1C(c1ccccc1)(c1ccccc1)n1ccnc1 [Clotrimazole]
Details	LDH release cytotoxicity [%]
0.03162 µM	-0.964
0.1 µM	-0.87
0.3162278 µM	-1.49
1 µM	-1.36
3.16228 µM	-0.966
10 µM	4.28
31.6228 µM	11.6
100 µM	82.1

COc1ccc2cc(S(=O)(=O)NC(CC(=O)NC(Cc3ccc(CN4C(C)CCCC4C)cc3)C(=O)N(C)C(C)C)c3ccc4c(c3)OCO4)ccc2c1 (configuration not stated)
Details	LDH release cytotoxicity [%]
0.0301998 µM	-0.793
0.0955 µM	-1.98
0.301997 µM	-1.26
0.955 µM	-1.65
3.01998 µM	-1.13
9.55 µM	1.45
30.199752 µM	70.28
95.5 µM	80.2

CC(C)(C)c1cc(C(C)(C)C)c(O)c(C(C)(C)C)c1 [2,4,6-Tris(tert-butyl)phenol]
Details	LDH release cytotoxicity [%]
0.03162 µM	-0.34
0.1 µM	-0.143
0.3162278 µM	-0.16
1 µM	-0.404
3.16228 µM	-0.476
10 µM	0.204
31.6228 µM	-0.0327
100 µM	0.75

Clc1ccc(Cl)c(Cl)c1 [1,2,4-Trichlorobenzene]
Details	LDH release cytotoxicity [%]
0.03162 µM	-0.83
0.1 µM	-0.799
0.3162278 µM	-1.05
1 µM	-0.848
3.16228 µM	-1.46
10 µM	-0.626
31.6228 µM	-0.776
100 µM	-0.785

C#CCN1C(=O)COc2cc(F)c(N3C(=O)C4=C(CCCC4)C3=O)cc21 [Flumioxazin]
Details	LDH release cytotoxicity [%]
0.03162 µM	-0.355
0.1 µM	-0.895
0.3162278 µM	-0.721
1 µM	-1.33
3.16228 µM	-0.964
10 µM	-1.1
31.6228 µM	-0.837
100 µM	0.763

CC1=C2CC3C(CC=C4CC(O)CCC43C)C2CCC12OC1CC(C)CNC1C2C (configuration not stated) [Cyclopamine]
Details	LDH release cytotoxicity [%]
0.015811 µM	-1.27
0.05 µM	-3.64
0.158114 µM	-4.31
0.5 µM	-4.01
1.58114 µM	-4.1
5 µM	-3.94
15.8114 µM	-2.45
50 µM	0.363

Cc1cc(O)ccc1Cl [4-Chloro-3-methylphenol]
Details	LDH release cytotoxicity [%]
0.03162 µM	-0.825
0.1 µM	-0.387
0.3162278 µM	-0.309
1 µM	-0.443
3.16228 µM	0.57
10 µM	0.611
31.6228 µM	0.786
100 µM	2.48

CCOP(=S)(Oc1ccc([N+](=O)[O-])cc1)c1ccccc1 (configuration not stated) [EPN]
Details	LDH release cytotoxicity [%]
0.03162 µM	-0.935
0.1 µM	-1.31
0.3162278 µM	-1.61
1 µM	-1.96
3.16228 µM	-1.14
10 µM	-0.361
31.6228 µM	0.629
100 µM	5.51

Cc1ccc(N)cc1N [2,4-Diaminotoluene]
Details	LDH release cytotoxicity [%]
0.031623 µM	-1.84
0.1 µM	-0.98
0.316228 µM	-1.49
1 µM	-2.17
3.16228 µM	-1.86
10 µM	-1.56
31.6228 µM	-1.29
100 µM	-0.394

CCC(=C(c1ccccc1)c1ccc(OCCN(C)C)cc1)c1ccccc1 [Tamoxifen citrate]
Details	LDH release cytotoxicity [%]
0.02893 µM	-0.702
0.0915 µM	-0.863
0.289348 µM	-1.43
0.915 µM	-1.01
2.89348 µM	0.0489
9.15 µM	0.563
28.9348 µM	9.57
91.5 µM	88.7

O=C(O)C(F)(F)C(F)(F)C(F)(F)C(F)(F)C(F)(F)C(F)(F)C(F)(F)C(F)(F)C(F)(F)C(F)(F)F [Perfluoroundecanoic acid]
Details	LDH release cytotoxicity [%]
0.0302 µM	-0.896
0.0955 µM	-2.14
0.301998 µM	-0.462
0.955 µM	-1.31
3.01998 µM	-1.93
9.55 µM	-1.78
30.1998 µM	-0.387
95.5 µM	1.42

CN(C)NC(=O)CCC(=O)O [Daminozide]
Details	LDH release cytotoxicity [%]
0.03162 µM	-1.88
0.1 µM	-1.67
0.3162278 µM	-1.27
1 µM	-0.212
3.16228 µM	-1.11
10 µM	-0.0868
31.6228 µM	0.553
100 µM	1.58

CCCc1ccccc1 [Propylbenzene]
Details	LDH release cytotoxicity [%]
0.03162 µM	0.0897
0.1 µM	0.202
0.3162278 µM	-0.202
1 µM	-0.857
3.16228 µM	0.305
10 µM	-0.0719
31.6228 µM	1.09
100 µM	0.766

C[Si]1(C)O[Si](C)(C)O[Si](C)(C)O[Si](C)(C)O1 [Octamethylcyclotetrasiloxane]
Details	LDH release cytotoxicity [%]
0.03162 µM	-1.66
0.1 µM	-2.19
0.3162278 µM	-0.981
1 µM	-1.15
3.16228 µM	-1.27
10 µM	-0.835
31.6228 µM	-1.36
100 µM	1.7

CC(C)=CCCC(C)CCO (configuration not stated) [Citronellol]
Details	LDH release cytotoxicity [%]
0.03162 µM	-1.93
0.1 µM	-2.94
0.3162278 µM	-2.48
1 µM	-2.8
3.16228 µM	-2.02
10 µM	-2.14
31.6228 µM	-1.61
100 µM	0.398

Cc1nc(C)nc(N2CC(C)N(c3ccnc(C(C)O)n3)C(C)C2)n1 (configuration not stated)
Details	LDH release cytotoxicity [%]
0.01581 µM	-1.17
0.05 µM	-0.963
0.1581139 µM	-1.7
0.5 µM	-1.95
1.5811388 µM	-0.835
5 µM	-1.01
15.8114 µM	-0.652
50 µM	0.767

Clc1ccc(Cl)cc1 [1,4-Dichlorobenzene]
Details	LDH release cytotoxicity [%]
0.03162 µM	-0.401
0.1 µM	-1.22
0.3162278 µM	-1.55
1 µM	-0.354
3.16228 µM	-0.734
10 µM	-0.586
31.6228 µM	0.224
100 µM	5.07
